Experimental data: paper PMC3981819, “Signaling Properties and Pharmacological Analysis of Two Sulfakinin Receptors from the Red Flour Beetle, Tribolium castaneum” (PLoS ONE, 2014)
Square brackets hold non-standard residues; d marks the D form. Ends that are not written are not given here. pGlu = O=C1CC[C@@H](C(=O)O)N1

B1: nsLocmi-SK (peptide)
peptide: [pGlu]LASDDYGHMRF-NH2
SMILES: CSCC[C@H](NC(=O)[C@H](Cc1c[nH]cn1)NC(=O)CNC(=O)[C@H](Cc1ccc(O)cc1)NC(=O)[C@H](CC(=O)O)NC(=O)[C@H](CC(=O)O)NC(=O)[C@H](CO)NC(=O)[C@H](C)NC(=O)[C@H](CC(C)C)NC(=O)[C@@H]1CCC(=O)N1)C(=O)N[C@@H](CCCNC(=N)N)C(=O)N[C@@H](Cc1ccccc1)C(N)=O

What was measured:
[1] = test system: Trica-SKR2; assay: Aequorin-luminescence assay, CHO-WTA11 cells (Gα16) transfected with Trica-SKR2; assay type: cell-based, Tribolium castaneum; conditions: for % Trica-SKR2 (relative activation): peptide at 1 μM, relative to sTrica-SK(5–13) at 1 μM = 100%, at least three biological repeats, each in duplicate
Description: (§1) General pharmacological studies were performed in Chinese Hamster Ovary (CHO) WTA11 cells, stably coexpressing apoaequorin, a zeocin resistance gene and the promiscuous Gα16, which couples most agonist-induced GPCRs to the phospholipase C and Ca^2+ pathway irrespective of their natural signaling cascade. CHO-PAM28 cells stably expressing apoaequorin and a puromycin resistance gene but not Gα16 and HEK293T cells (Invitrogen) were used to determine possible effects on Ca^2+ and/or cAMP second messenger systems, respectively. All cell lines were cultured in Dulbecco’s Modified Eagles Medium nutrient mixture F12-Ham (DMEM/F12; Invitrogen) supplemented with 1% penicillin/streptomycin (10000 units/ml penicillin and 10 mg/ml streptomycin in 0.9% NaCl; Invitrogen) to prevent bacterial contamination of gram-positive and gram-negative bacteria. In CHO-WTA11 culture medium 250 μg/ml zeocin (Invitrogen) was added as a selection marker, while CHO-PAM28 culture medium was supplemented with 5 μg/ml puromycin to select cells stably expressing apoaequorin. All cell culture media were supplemented with 10% fetal bovine serum (inactivated at […]; Sigma-Aldrich).
(§2) Cells were cultured in vitro as a monolayer at 37°C with a constant supply of 5% CO2 and were subcultivated twice a week. Transfections of cells were performed in T75 flasks at 60–80% confluency. Transfection reagent for CHO cells was prepared by combining 3.75 ml Opti-MEM I (Invitrogen), 7.5 μg plasmid DNA and 18.75 μl of Plus Reagent (Invitrogen). After gently mixing and 5 min incubation at room temperature 45 μl of Lipofectamine LTX was added to the mixture. This transfection medium was incubated for 30 min at room temperature and added dropwise to the cells, supplemented with 3 ml of fresh culture medium. HEK 293T cells were cotransfected with a receptor construct (6 μg) and CRE-luciferase reporter construct (3 μg), consisting of the open reading frame of the luciferase gene, downstream of a multimerized cAMP-response-element (CRE) and promoter. After transfection, cells were grown overnight before an additional 20 ml of culture medium was supplemented. Cells were again incubated overnight for a final growth phase before luminescence screens were performed.
(§3) The aequorin luminescence assay was used to measure Ca^2+ signaling in CHO cell lines. Cells were detached using phosphate buffered saline (PBS) containing 0.2% EDTA and collected in 10 ml of DMEM/F-12 (without phenol red, with L-glutamine and 10 mM HEPES; Gibco). The viable cells were quantified using a NucleoCounter NC-100 (Chemometic). Cells were pelleted by 4 min centrifugation at 800 rpm at room temperature and resuspended in DMEM/BSA (DMEM/F-12 without phenol red, with L-glutamine and 10 mM HEPES, 0.1% bovine serum albumin) at a concentration of 5×10^6 cells/ml. Cells were then shielded from light and Coelenterazine H (Invitrogen) was added at a final concentration of 5 μM. Cells were gently shaken at room temperature for 4 h under dark conditions, allowing the aequorin holoenzyme to be reconstituted. After a 10-fold dilution in DMEM/BSA, cells were incubated another 30 min under the same conditions. Pharmacological ligands were dissolved in DMEM/BSA and 50 μl of ligand was added to wells of a 96-well plate. Wells containing 50 μl of DMEM/BSA were used as a negative control, while wells containing 1 μM of ATP served as positive control. Incubated cells were added to the wells of the 96-well plate and light emission was measured for 30 s using a Mithras LB940 (Berthold Technologies). After 30 s Triton X-100 (0.2% in DMEM/BSA) was added, lysing the cells and thus serving as an internal reference. Light emission was measured for an additional 8 s after Triton X-100 was introduced in the wells. Light emission from each well was calculated relative to the total response (ligand+Triton X-100) using the output file of Mikrowin2000 software (Mikrotek). Further analysis was done in Graphpad Prism 5.

[2] = test system: Trica-SKR1; assay: Aequorin-luminescence assay, CHO-WTA11 cells (Gα16) transfected with Trica-SKR1; assay type: cell-based, Tribolium castaneum; conditions: for % Trica-SKR1 (relative activation): peptide at 1 μM, relative to sTrica-SK(5–13) at 1 μM = 100%, at least three biological repeats, each in duplicate
Description: as §1, §2, §3

[3] = target: Tribolium castaneum sulfakinin receptor 2 (T. castaneum)
[4] = target: Tribolium castaneum sulfakinin receptor 1 (T. castaneum)

Molecule | % Trica-SKR2 (relative activation) ([1]; aequorin bioluminescence) | % Trica-SKR1 (relative activation) ([2]; aequorin bioluminescence) | aequorin bioluminescence in CHO-WTA11 cells transfected with the receptor, peptide at 1 μM, % of the response to 1 μM sTrica-SK(5–13) [3] | aequorin bioluminescence in CHO-WTA11 cells transfected with the receptor, peptide at 1 μM, % of the response to 1 μM sTrica-SK(5–13) [4] | further results
DDYGHMRFa [2009[φ1]wp-1, truncated nonsulfated SK analog] | 17.1% | 27.2% | – | – | –
FDDYGHMRFa [nsTrica-SK(5–13)] | 23.5% | 29.9% | – | – | –
SDDY(SO3H)GHMRFa [1835[φ2]wp-4, sulfated SK analog SDDY(SO3H)GHMRFa] | 41.4% | 58.2% | – | – | –
YGHMRFa [2011[φ1]wp-1, truncated nonsulfated SK analog] | 21.2% | 26.3% | – | – | –
HMRFa [2052[φ1]wp-3, tetrapeptide HMRFamide, truncated analog] | 33.4% | 43.4% | – | – | –
SPVDY(SO3H)DRPIMAFa [1567[φ1]wp-5, sulfated neuropeptide derived from C. elegans nlp-13] | 33.7% | 23.6% | – | – | –
GHMRFa [2053[φ1]wp-4, truncated nonsulfated SK analog] | 44.6% | 13.3% | – | – | –
DGY(SO3H)RPLQFa [1678B[φ1]wp-6, sulfated SK-like peptide encoded by C. elegans nlp-12] | 19.9% | 28.5% | – | – | –
DY(SO3H)RPLQFa [1678A[φ1]wp-4, sulfated SK-like peptide encoded by C. elegans nlp-12] | 32.6% | 40.8% | – | – | –
FDDYGHARFa [2005[φ1]wp-3, alanine scan analog of nsTrica-SK] | 11.1% | 5.1% | – | – | –
FDDYGHMRa [2076[φ1]wp-2] | 19.7% | 25.8% | – | – | –
pQLASDDYGHMRFa [nsLocmi-SK, nonsulfated Locusta migratoria SK] | 18.2% | 22.2% | – | – | –
pQPSY(SO3H)DRDIMSFa [1679[φ1]wp-4, sulfated neuropeptide derived from C. elegans nlp-13] | 16.6% | 16.5% | – | – | –
PVDY(SO3H)DRPIMAFa [1569[φ2]wp-4, sulfated neuropeptide derived from C. elegans nlp-13] | 13.4% | 6.2% | – | – | –
FDDYGAMRFa [2006[φ1]wp-1, alanine scan analog of nsTrica-SK] | 3.5% | 2.3% | – | – | –
FDDAGHMRFa [2008[φ1]wp-2, alanine scan analog of nsTrica-SK, tyrosine replaced] | 12.1% | 10.1% | – | – | –

Molecule | % Trica-SKR2 (relative activation) ([1]; aequorin bioluminescence) | % Trica-SKR1 (relative activation) ([2]; aequorin bioluminescence) | aequorin bioluminescence in CHO-WTA11 cells transfected with the receptor, peptide at 1 μM, % of the response to 1 μM sTrica-SK(5–13) [3] | aequorin bioluminescence in CHO-WTA11 cells transfected with the receptor, peptide at 1 μM, % of the response to 1 μM sTrica-SK(5–13) [4] | further results
SPVDYDRPIMAFa [1432-2[φ]wp-6, peptide derived from C. elegans nlp-13] | 11.2% | 16.4% | – | – | –
FDDYAHMRFa [2007[φ1]wp-1, alanine scan analog of nsTrica-SK, glycine replaced] | 25.6% | 30.6% | – | – | –
FDDYGHMAFa [2004[φ1]wp-1, alanine scan analog of nsTrica-SK] | 7.3% | 5.9% | – | – | –
DYGHMRFa [2010[φ1]wp-1, truncated nonsulfated SK analog] | 8.6% | 7.6% | – | – | –
FDDYGHMRAa [2003[φ1]wp-2, alanine scan analog of nsTrica-SK] | 15.6% | 8.2% | – | – | –
pQLASDDY(SO3H)GHMRFa [sLocmi-SK, sulfated SK from the migratory locust, Locusta migratoria] | 79.9% | 75.0% | – | – | EC50 ([1]; aequorin bioluminescence, 1 fM to 1 μM, three independent measurements in duplicate): 776 ± 443 nM; times less potent than sTrica-SK(5–13) as Trica-SKR2 agonist ([1]; ratio of EC50 values): ca. 1500 times; EC50 ([2]; aequorin bioluminescence, 1 fM to 1 μM, ± 95% confidence interval, three independent measurements in duplicate): 16.8 ± 4.6 nM; times less potent than sTrica-SK(5–13) in activating the Trica-SKR1 ([2]; ratio of EC50 values): about 150 times
FDDYGHMRA-NH2 [2003[φ1]wp-2] | – | – | 15.6% | 8.2% | –
B1 | – | – | 18.2% | 22.2% | –
FDDYGHARF-NH2 [2005[φ1]wp-3] | – | – | 11.1% | 5.1% | –
FDDYGHMAF-NH2 [2004[φ1]wp-1] | – | – | 7.3% | 5.9% | –
DDYGHMRF-NH2 (ends and bridges not checked) [2009[φ1]wp-1] | – | – | 17.1% | 27.2% | –
FDDAGHMRF-NH2 [2008[φ1]wp-2] | – | – | 12.1% | 10.1% | –
DYGHMRF-NH2 (ends and bridges not checked) [2010[φ1]wp-1] | – | – | 8.6% | 7.6% | –
FDDYGAMRF-NH2 [2006[φ1]wp-1] | – | – | 3.5% | 2.3% | –
FDDYAHMRF-NH2 (ends and bridges not checked) [2007[φ1]wp-1] | – | – | 25.6% | 30.6% | –
FDDYGHMRF-NH2 [nonsulfated Trica-SK(5–13)] | – | – | 23.5% | 29.9% | –
